These results are taken from ChEMBL document CHEMBL2396533, “Γ-aminobutyric acid(C) (GABAC) selective antagonists derived from the bioisosteric modification of 4-aminocyclopent-1-enecarboxylic acid: amides and hydroxamates” (J Med Chem, 2013).

The target in experiment [1] is T1, Gamma-aminobutyric acid receptor subunit rho-1 (Homo sapiens, UniProt P24046). In words: Antagonist activity at human recombinant GABAA rho1 receptor expressed in Xenopus laevis assessed as inhibition of GABA-induced chloride current production after 2 to 5 days by two-electrode voltage-clamp electrophysiological assay.
For experiment [2], the target named is T2, GABA-A receptor; alpha-1/beta-2/gamma-2 (Homo sapiens) (UniProt P14867+P47870+P18507). As to the kind of experiment: Agonist activity at human recombinant GABAAalpha1beta2gamma2L receptor expressed in Xenopus laevis assessed as induction of chloride current production at 300 uM after 2 to 5 days by two-electrode voltage-clamp electrophysiological assay relative to GABA.

Experiment [3] concerns the target T2, GABA-A receptor; alpha-1/beta-2/gamma-2 (Homo sapiens). In words: Antagonist activity at human recombinant GABAAalpha1beta2gamma2L receptor expressed in Xenopus laevis assessed as inhibition of GABA-induced chloride current production at 300 uM after 2 to 5 days by two-electrode voltage-clamp electrophysiological assay relative to control.
Experiment [4] concerns the target T1, Gamma-aminobutyric acid receptor subunit rho-1. As to the kind of experiment: Antagonist activity at human recombinant GABAA rho1 receptor expressed in Xenopus laevis assessed as inhibition of GABA-induced chloride current production at 300 uM after 2 to 5 days by two-electrode voltage-clamp electrophysiological assay relative to control.

pIC50: −log10 of the molar value. The source made the active and inactive calls. The calls are words filed in the database; no cut-off is given here.

T1 sequence (P24046 whole entry): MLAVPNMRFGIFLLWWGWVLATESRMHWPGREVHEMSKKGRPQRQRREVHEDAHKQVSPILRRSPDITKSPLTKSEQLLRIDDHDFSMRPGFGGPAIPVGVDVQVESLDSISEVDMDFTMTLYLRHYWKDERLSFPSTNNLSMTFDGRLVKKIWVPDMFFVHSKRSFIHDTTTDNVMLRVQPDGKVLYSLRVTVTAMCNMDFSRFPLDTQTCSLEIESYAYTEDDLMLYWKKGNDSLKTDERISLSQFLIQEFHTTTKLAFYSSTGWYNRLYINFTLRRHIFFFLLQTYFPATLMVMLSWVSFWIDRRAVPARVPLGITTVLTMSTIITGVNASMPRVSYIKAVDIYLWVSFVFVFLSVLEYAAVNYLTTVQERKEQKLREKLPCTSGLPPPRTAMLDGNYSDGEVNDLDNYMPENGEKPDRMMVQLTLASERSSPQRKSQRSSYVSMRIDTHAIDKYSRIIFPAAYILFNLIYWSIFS

Turning to `C=CCONC(=O)C1=CCC(N)C1` (racemic), the negative-log IC50 (pIC50) in experiment [1] is 3.94. For the same compound, the Activity in experiment [2] was found to be 1.7%.
With `NC(=O)C1=CCC(N)C1` (racemic), the negative logarithm of the IC50 (pIC50) in experiment [1] was 5.02. Besides, the inhibition in experiment [3] was determined as 23.3%.
On to `CNC(=O)C1=CCC(N)C1` (racemic), for which the pIC50 in experiment [1] was 3.39. Besides, the inhibition result in experiment [3] was “inactive”. In experiment [2], the result was inactive.
On to `CCCNC(=O)C1=CCC(N)C1` (racemic), for which the negative logarithm of the IC50 (pIC50) in experiment [1] is 3.24. In experiment [3], the inhibition entry was “inactive”. Besides, the result in experiment [2] was inactive.
As for `NC1CC=C(C(=O)NO)C1` (racemic), the pIC50 in experiment [1] is 4.89. Moreover, in experiment [2], the Activity came to 4.3%.
Regarding `NC1CC=C(C(=O)O)C1` (racemic), the pIC50 in experiment [1] is 5.18. Also, the Activity in experiment [2] turned out to be 59.7%.
Regarding `CONC(=O)C1=CCC(N)C1` (racemic), in experiment [1], the negative-log IC50 (pIC50) is 4.09. The Activity in experiment [2] stood at 6.3%.
With `CCONC(=O)C1=CCC(N)C1` (racemic), in experiment [1], the pIC50 was 3.82. In addition, the Activity in experiment [2] worked out at 2.5%.
`CCCCCNC(=O)C1=CCC(N)C1` (racemic): the inhibition result in experiment [3] is “inactive”. The inhibition in experiment [4] was 20.5%. Besides, in experiment [2], the outcome was inactive.
As to `Cc1ccc(NC(=O)C2=CCC(N)C2)cc1` (racemic), the inhibition result in experiment [3] was “inactive”. Moreover, the inhibition in experiment [4] turned out to be 11.3%. In addition, the outcome in experiment [2] was inactive.
